Measurements from patent publication US20040018941A1, “Fused-benzene derivatives of thiouracil, herbicidal and desiccant compositions contaning them” (ISHIHARA SANGYO KAISHA, LTD., priority 2002, published 2004).

Columns and labels:
Type in all cases: in vivo
Conditions in all cases: rating 0-100 (0 no damage, 100 complete death), 14 days after application
[1] = tested on: lambsquarters (Chenopodium album, CHEAL); experiment: Pre-emerge herbicidal activity, greenhouse screen, CHEAL
Description: (§1) A standard greenhouse herbicide activity screening system was used to evaluate the herbicidal efficacy and crop safety of these test compounds. Seven broadleaf weed species including redroot pigweed (Amaranthus retroflexus, AMARE), velvetleaf (Abutilon theophrasti, ABUTH), sicklepod (Cassia obtusifolia, CASOB), ivyleaf morningglory (Ipomoea hederacea, IPOHE), lambsquarters (Chenopodium album, CHEAL), common ragweed (Ambrosia artemisiifolia L., AMBEL), and cocklebur (Xanthium strumarium, XANST) were used as test species. Four grass weed species including green foxtail (Setaria viridis, SETVI), barnyardgrass (Echinochloa crus-galli, ECHCG), johnsongrass (Sorghum halepense, SORHA), and large crabgrass (Digitaria sanguinalis, DIGSA) were also used. In addition, three crop species, field corn (Zea mays L., var. Dekalb 527, CORN), soybean (Glycine max L., var. Pella 86, SOY), and upland rice (Oryza sp., var. Tebonnet, RICE) were included.
(§2) All plants were grown in 10 cm square plastic pots which were filled with a sandy loam soil mix. For pre-emerge tests, seeds were planted one day prior to application of the test compounds. For post-emerge tests, seeds were planted 8-21 days prior to the test to allow emergence and good foliage development prior to application of the test substances. At the time of the post-emerge application, plants of all species were usually at the 2-3 leaf stage of development.
(§3) All test compounds were dissolved in acetone and applied to the test units in a volume of 187 l/ha. Test materials were applied at rates ranging from 15 g ai/ha to 1000 g ai/ha using a track sprayer equipped with a TJ8001 E even flow flat fan spray nozzle. Plants were arranged on a shelf so that the top of the canopy (post-emerge) or top of the soil surface (pre-emerge) was 40-45 cm below the nozzle. Pressurized air was used to force the test solution through the nozzle as it was mechanically advanced over the top of all test plants/pots. This application simulates a typical commercial field herbicide application.
(§4) In the post-emerge test, a commercial non-ionic surfactant was also included (0.25% v/v) to enhance wetting of the leaf surfaces of target plants. Immediately after application, test units of the pre-emerge applications were watered at the soil surface to incorporate the test materials.
(§5) At 14 days after application of the test materials, phytotoxicity ratings were recorded. A rating scale of 0-100 was used as previously described in Research Methods in Weed Science, 2nd edition, B. Truelove, Ed., Southern Weed Science Society, Auburn University, Auburn, Ala., 1977. Briefly, “0” corresponds to no damage and “100” corresponds to complete death of all plants in the test unit. This scale was used both to determine efficacy against weed species and damage to crop species. Herbicide activity data for various compounds of this invention, which are shown by compound No. in Tables 1-7, are shown in Tables 8 and 9.

[2] = tested on: green foxtail (Setaria viridis, SETVI); experiment: Pre-emerge herbicidal activity, greenhouse screen, SETVI
Description: as §1, §2, §3, §4, §5

[3] = tested on: johnsongrass (Sorghum halepense, SORHA); experiment: Post-emerge herbicidal activity, greenhouse screen, SORHA
Description: as §1, §2, §3, §4, §5

[4] = tested on: sicklepod (Cassia obtusifolia, CASOB); experiment: Post-emerge herbicidal activity, greenhouse screen, CASOB
Description: as §1, §2, §3, §4, §5

[5] = tested on: large crabgrass (Digitaria sanguinalis, DIGSA); experiment: Post-emerge herbicidal activity, greenhouse screen, DIGSA
Description: as §1, §2, §3, §4, §5

[6] = tested on: barnyardgrass (Echinochloa crus-galli, ECHCG); experiment: Pre-emerge herbicidal activity, greenhouse screen, ECHCG
Description: as §1, §2, §3, §4, §5

[7] = tested on: large crabgrass (Digitaria sanguinalis, DIGSA); experiment: Pre-emerge herbicidal activity, greenhouse screen, DIGSA
Description: as §1, §2, §3, §4, §5

[8] = tested on: common ragweed (Ambrosia artemisiifolia L., AMBEL); experiment: Post-emerge herbicidal activity, greenhouse screen, AMBEL
Description: as §1, §2, §3, §4, §5

[9] = tested on: sicklepod (Cassia obtusifolia, CASOB); experiment: Pre-emerge herbicidal activity, greenhouse screen, CASOB
Description: as §1, §2, §3, §4, §5

[10] = tested on: green foxtail (Setaria viridis, SETVI); experiment: Post-emerge herbicidal activity, greenhouse screen, SETVI
Description: as §1, §2, §3, §4, §5

[11] = tested on: common ragweed (Ambrosia artemisiifolia L., AMBEL); experiment: Pre-emerge herbicidal activity, greenhouse screen, AMBEL
Description: as §1, §2, §3, §4, §5

[12] = tested on: barnyardgrass (Echinochloa crus-galli, ECHCG); experiment: Post-emerge herbicidal activity, greenhouse screen, ECHCG
Description: as §1, §2, §3, §4, §5

[13] = tested on: ivyleaf morningglory (Ipomoea hederacea, IPOHE); experiment: Pre-emerge herbicidal activity, greenhouse screen, IPOHE
Description: as §1, §2, §3, §4, §5

[14] = tested on: lambsquarters (Chenopodium album, CHEAL); experiment: Post-emerge herbicidal activity, greenhouse screen, CHEAL
Description: as §1, §2, §3, §4, §5

[15] = tested on: redroot pigweed (Amaranthus retroflexus, AMARE); experiment: Pre-emerge herbicidal activity, greenhouse screen, AMARE
Description: as §1, §2, §3, §4, §5

[16] = tested on: velvetleaf (Abutilon theophrasti, ABUTH); experiment: Post-emerge herbicidal activity, greenhouse screen, ABUTH
Description: as §1, §2, §3, §4, §5

[17] = tested on: velvetleaf (Abutilon theophrasti, ABUTH); experiment: Pre-emerge herbicidal activity, greenhouse screen, ABUTH
Description: as §1, §2, §3, §4, §5

[18] = tested on: johnsongrass (Sorghum halepense, SORHA); experiment: Pre-emerge herbicidal activity, greenhouse screen, SORHA
Description: as §1, §2, §3, §4, §5

[19] = tested on: redroot pigweed (Amaranthus retroflexus, AMARE); experiment: Post-emerge herbicidal activity, greenhouse screen, AMARE
Description: as §1, §2, §3, §4, §5

[20] = tested on: ivyleaf morningglory (Ipomoea hederacea, IPOHE); experiment: Post-emerge herbicidal activity, greenhouse screen, IPOHE
Description: as §1, §2, §3, §4, §5

Row | Structure (SMILES) | Pre-emerge Herbicidal Activity CHEAL ([1]; 63 g ai/ha) | Pre-emerge Herbicidal Activity CHEAL ([1]; 250 g ai/ha) | Pre-emerge Herbicidal Activity SETVI ([2]; 63 g ai/ha) | Pre-emerge Herbicidal Activity SETVI ([2]; 250 g ai/ha) | Post-emerge Herbicidal Activity SORHA ([3]; 63 g ai/ha) | Post-emerge Herbicidal Activity SORHA ([3]; 250 g ai/ha) | Post-emerge Herbicidal Activity CASOB ([4]; 63 g ai/ha) | Post-emerge Herbicidal Activity CASOB ([4]; 250 g ai/ha) | Post-emerge Herbicidal Activity DIGSA ([5]; 63 g ai/ha) | Post-emerge Herbicidal Activity DIGSA ([5]; 250 g ai/ha) | Pre-emerge Herbicidal Activity ECHCG ([6]; 63 g ai/ha) | Pre-emerge Herbicidal Activity ECHCG ([6]; 250 g ai/ha) | Pre-emerge Herbicidal Activity DIGSA ([7]; 63 g ai/ha) | Pre-emerge Herbicidal Activity DIGSA ([7]; 250 g ai/ha) | Post-emerge Herbicidal Activity AMBEL ([8]; 63 g ai/ha) | Post-emerge Herbicidal Activity AMBEL ([8]; 250 g ai/ha) | Pre-emerge Herbicidal Activity CASOB ([9]; 63 g ai/ha) | Pre-emerge Herbicidal Activity CASOB ([9]; 250 g ai/ha) | Post-emerge Herbicidal Activity SETVI ([10]; 63 g ai/ha) | Post-emerge Herbicidal Activity SETVI ([10]; 250 g ai/ha) | other results
1 | Cn1c(C(F)(F)F)cc(=O)n(-c2c(F)cc(Cl)c3ncoc23)c1=S [Compound 1-1, 3-(4-chloro-6-fluoro-1,3-benzoxazol-7-yl)-1-methyl-2-thioxo-6-(trifluoromethyl)-2,3-dihydropyrimidin4(1H)-one] | 100 | 100 | 100 | 100 | 95 | 100 | 100 | 100 | 95 | 99 | 100 | 100 | 100 | 100 | 100 | 100 | 100 | 100 | 100 | 100 | Pre-emerge Herbicidal Activity AMBEL ([11]; 63 g ai/ha): 100; Pre-emerge Herbicidal Activity AMBEL ([11]; 250 g ai/ha): 100; Post-emerge Herbicidal Activity ECHCG ([12]; 63 g ai/ha): 100; Post-emerge Herbicidal Activity ECHCG ([12]; 250 g ai/ha): 100; Pre-emerge Herbicidal Activity IPOHE ([13]; 63 g ai/ha): 100; Pre-emerge Herbicidal Activity IPOHE ([13]; 250 g ai/ha): 100; Post-emerge Herbicidal Activity CHEAL ([14]; 63 g ai/ha): 100; Post-emerge Herbicidal Activity CHEAL ([14]; 250 g ai/ha): 100; Pre-emerge Herbicidal Activity AMARE ([15]; 63 g ai/ha): 100; Pre-emerge Herbicidal Activity AMARE ([15]; 250 g ai/ha): 100; Post-emerge Herbicidal Activity ABUTH ([16]; 63 g ai/ha): 100; Post-emerge Herbicidal Activity ABUTH ([16]; 250 g ai/ha): 100; Pre-emerge Herbicidal Activity ABUTH ([17]; 63 g ai/ha): 100; Pre-emerge Herbicidal Activity ABUTH ([17]; 250 g ai/ha): 100; Pre-emerge Herbicidal Activity SORHA ([18]; 63 g ai/ha): 100; Pre-emerge Herbicidal Activity SORHA ([18]; 250 g ai/ha): 100; Post-emerge Herbicidal Activity AMARE ([19]; 63 g ai/ha): 100; Post-emerge Herbicidal Activity AMARE ([19]; 250 g ai/ha): 100; Post-emerge Herbicidal Activity IPOHE ([20]; 63 g ai/ha): 100; Post-emerge Herbicidal Activity IPOHE ([20]; 250 g ai/ha): 100
2 | Cc1cc2c(-n3c(=O)cc(C(F)(F)F)n(C)c3=S)c(F)cc(Cl)c2o1 [Compound 2-2, 3-(7-chloro-5-fluoro-2-methyl-1-benzofuran-4-yl)-1-methyl-2-thioxo-6-(trifluoromethyl)-2,3-dihydropyrimidin-4(1H)-one] | 100 | 100 | 100 | 100 | 100 | 100 | 100 | 100 | 85 | 100 | 99 | 100 | 100 | 100 | 100 | 100 | 99 | 100 | 100 | 100 | Pre-emerge Herbicidal Activity AMBEL ([11]; 63 g ai/ha): 100; Pre-emerge Herbicidal Activity AMBEL ([11]; 250 g ai/ha): 100; Post-emerge Herbicidal Activity ECHCG ([12]; 63 g ai/ha): 100; Post-emerge Herbicidal Activity ECHCG ([12]; 250 g ai/ha): 100; Pre-emerge Herbicidal Activity IPOHE ([13]; 63 g ai/ha): 99; Pre-emerge Herbicidal Activity IPOHE ([13]; 250 g ai/ha): 99; Post-emerge Herbicidal Activity CHEAL ([14]; 63 g ai/ha): 100; Post-emerge Herbicidal Activity CHEAL ([14]; 250 g ai/ha): 100; Pre-emerge Herbicidal Activity AMARE ([15]; 63 g ai/ha): 100; Pre-emerge Herbicidal Activity AMARE ([15]; 250 g ai/ha): 100; Post-emerge Herbicidal Activity ABUTH ([16]; 63 g ai/ha): 100; Post-emerge Herbicidal Activity ABUTH ([16]; 250 g ai/ha): 100; Pre-emerge Herbicidal Activity ABUTH ([17]; 63 g ai/ha): 100; Pre-emerge Herbicidal Activity ABUTH ([17]; 250 g ai/ha): 100; Pre-emerge Herbicidal Activity SORHA ([18]; 63 g ai/ha): 100; Pre-emerge Herbicidal Activity SORHA ([18]; 250 g ai/ha): 100; Post-emerge Herbicidal Activity AMARE ([19]; 63 g ai/ha): 100; Post-emerge Herbicidal Activity AMARE ([19]; 250 g ai/ha): 100; Post-emerge Herbicidal Activity IPOHE ([20]; 63 g ai/ha): 100; Post-emerge Herbicidal Activity IPOHE ([20]; 250 g ai/ha): 100
